Laboratory results from patent US20250263400A1, “GCN2 MODULATOR COMPOUNDS” (Alesta Therapeutics BV, priority 2022, published 2025).
pIC50: −log10 of the molar value.

The compounds below were run against GCN2 (Homo sapiens (Human), UniProt Q9P2K8) (assay: GCN2 enzyme assay).
Type: biochemical
Procedure: For GCN2 enzyme assays, testing compounds were prepared at proper concentrations in DMSO solution. IC50 values were calculated from a remaining activity using read conversion ratio.

Sequence of GCN2 (Q9P2K8 whole entry, species assumed): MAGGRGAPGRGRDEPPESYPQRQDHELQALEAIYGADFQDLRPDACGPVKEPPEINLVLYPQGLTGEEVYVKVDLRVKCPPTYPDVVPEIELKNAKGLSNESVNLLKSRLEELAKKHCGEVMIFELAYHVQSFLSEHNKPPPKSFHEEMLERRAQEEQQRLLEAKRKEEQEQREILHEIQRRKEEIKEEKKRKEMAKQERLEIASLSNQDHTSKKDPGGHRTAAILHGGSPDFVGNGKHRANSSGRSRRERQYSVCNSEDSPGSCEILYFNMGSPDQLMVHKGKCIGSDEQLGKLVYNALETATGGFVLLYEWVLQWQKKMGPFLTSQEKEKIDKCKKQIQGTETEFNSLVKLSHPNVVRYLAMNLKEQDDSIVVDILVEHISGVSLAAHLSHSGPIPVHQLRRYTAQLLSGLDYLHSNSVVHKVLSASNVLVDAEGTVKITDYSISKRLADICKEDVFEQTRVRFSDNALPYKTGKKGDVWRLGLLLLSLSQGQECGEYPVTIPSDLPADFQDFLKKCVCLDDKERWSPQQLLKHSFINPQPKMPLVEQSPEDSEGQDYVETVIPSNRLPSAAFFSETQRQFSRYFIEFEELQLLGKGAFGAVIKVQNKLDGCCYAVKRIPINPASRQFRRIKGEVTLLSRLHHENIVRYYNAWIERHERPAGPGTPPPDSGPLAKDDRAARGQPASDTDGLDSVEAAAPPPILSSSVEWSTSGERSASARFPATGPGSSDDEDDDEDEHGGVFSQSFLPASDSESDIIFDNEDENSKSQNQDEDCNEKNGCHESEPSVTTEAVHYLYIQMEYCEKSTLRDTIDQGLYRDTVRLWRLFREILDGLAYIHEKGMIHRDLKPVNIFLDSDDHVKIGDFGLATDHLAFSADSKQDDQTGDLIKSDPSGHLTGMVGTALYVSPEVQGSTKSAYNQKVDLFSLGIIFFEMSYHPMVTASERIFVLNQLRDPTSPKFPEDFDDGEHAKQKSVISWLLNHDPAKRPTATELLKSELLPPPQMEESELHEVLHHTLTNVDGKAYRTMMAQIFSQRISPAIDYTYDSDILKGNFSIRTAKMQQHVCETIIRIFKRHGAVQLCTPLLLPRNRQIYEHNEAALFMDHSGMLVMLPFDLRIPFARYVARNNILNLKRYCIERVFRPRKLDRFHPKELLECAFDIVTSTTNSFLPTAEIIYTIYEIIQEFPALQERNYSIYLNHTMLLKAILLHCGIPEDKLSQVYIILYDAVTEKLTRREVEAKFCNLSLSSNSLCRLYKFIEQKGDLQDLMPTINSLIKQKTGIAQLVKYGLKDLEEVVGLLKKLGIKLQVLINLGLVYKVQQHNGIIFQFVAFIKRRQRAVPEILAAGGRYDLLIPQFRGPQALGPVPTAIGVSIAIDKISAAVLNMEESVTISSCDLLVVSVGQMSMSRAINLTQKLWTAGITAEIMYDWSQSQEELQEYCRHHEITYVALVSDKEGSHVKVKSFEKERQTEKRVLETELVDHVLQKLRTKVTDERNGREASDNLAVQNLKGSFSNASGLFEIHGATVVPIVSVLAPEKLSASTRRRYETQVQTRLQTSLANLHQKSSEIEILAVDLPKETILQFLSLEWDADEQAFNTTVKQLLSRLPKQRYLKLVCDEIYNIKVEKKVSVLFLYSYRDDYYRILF

pIC50	SMILES
7.98	COCCNC(=O)N1CC[C@@H](Nc2ncc3cc(-c4c(F)ccc(NS(=O)(=O)c5cc(Cl)cc(CO)c5Cl)c4F)ccc3n2)C1 [Compound 1, (R)-3-((6-(3-((2,5-dichloro-3-(hydroxymethyl)phe-nyl)sulfonamido)-2,6-difluorophenyl)quina-zolin-2-yl)amino)-N-(2-methoxyethyl)pyr-rolidine-1-carboxamide]
8.58	COCCNC[C@@H]1CC[C@@H](Nc2ncc3cc(-c4c(F)ccc(NS(=O)(=O)c5cc(Cl)cc(CO)c5Cl)c4F)ccc3n2)C1 [Compound 2, 2,5-dichloro-N-(2,4-difluoro-3-(2-(((1R,3R)-3-(((2-methoxyethyl)ami-no)methyl)cyclopent-yl)amino)quina-zolin-6-yl)phenyl)-3-(hydroxymethyl)ben-zenesulfonamide]
8.27	COCCNC(=O)[C@H]1C[C@H](Nc2ncc3cc(-c4c(F)ccc(NS(=O)(=O)c5cc(Cl)cc(CO)c5Cl)c4F)ccc3n2)CN1 [Compound 3, (2R,4S)-4-((6-(3-((2,5-dichloro-3-(hydroxymethyl)phe-nyl)sulfonamido)-2,6-difluorophenyl)quin-zolin-2-yl)amino)-N-(2-methoxyethyl)pyr-rolidine-2-carboxamide]
8.40	CN(C)CCNC(=O)[C@H]1CC[C@H](Nc2ncc3cc(-c4c(F)ccc(NS(=O)(=O)c5cc(Cl)cc(CO)c5Cl)c4F)ccc3n2)CC1 [Compound 4, (1R,4R)-4-((6-(3-((2,5-dichloro-3-(hydroxymethyl)phe-nyl)sulfonamido)-2,6-difluorophenyl)quina-zolin-2-yl)amino)-N-(2-(dimethylamino)eth-yl)cyclohexane-1-carboxamide]
7.94	COCCNC(=O)N1CC[C@@H](Nc2ncc3cc(-c4c(F)ccc(NS(=O)(=O)c5cc(Cl)cnc5OC)c4F)ccc3n2)C1 [Compound 5, (R)-3-((6-(3-((5-chloro-2-methoxypyridine)-3-sulfonamido)-2,6-difluorophenyl)quina-zolin-2-yl)amino)-N-(2-methoxyethyl)pyr-rolidine-1-carboxamide]
8.47	Cc1ncc(Cl)cc1S(=O)(=O)Nc1ccc(F)c(-c2ccc3nc(N[C@H]4CC[C@H](N(C)C)CC4)ncc3c2)c1F [Compound 6, 5-chloro-N-(3-(2-(((1R,4R)-4-(dimethylamino)cy-clohexyl)amino)quinazolin-6-yl)-2,4-difluorophenyl)-2-methylpyridine-3-sulfonamide]
7.90	COCCNC[C@@H]1CCC(Nc2ncc3cc(-c4c(Cl)ccc(NS(=O)(=O)c5cc(Cl)cnc5OC)c4Cl)ccc3n2)C1 (stereo partly drawn) [Compound 7, 5-chloro-N-(2,4-dichloro-3-(2-(((1R,3R)-3-(((2-methoxyethyl)ami-no)methyl)cyclopent-yl)amino)quina-zolin-6-yl)phenyl)-2-methoxypyridine-3-sulfonamide]
8.67	NC(=O)[C@@H]1CC[C@@H](Nc2ncc3cc(-c4c(F)ccc(NS(=O)(=O)c5cc(Cl)cc(CO)c5Cl)c4F)ccc3n2)C1 [Compound 11, (1R,3R)-3-((6-(3-((2,5-dichloro-3-(hydroxymethyl)phe-nyl)sulfonamido)-2,6-difluorophenyl)quina-zolin-2-yl)amino)cyclopent-ane-1-carboxamide]
8.12	O=S1(=O)CCC(Nc2ncc3cc(-c4c(F)ccc(NS(=O)(=O)c5cc(Cl)cc(CO)c5Cl)c4F)ccc3n2)C1 (stereo not shown) [Compound 12, 2,5-dichloro-N-(3-(2-((1,1-dioxidotetrahydro-thiophen-3-yl)amino)quinazo-lin-6-yl)-2,4-difluorophenyl)-3-(hydroxymethyl)ben-zenesulfonamide]
8.40	COCCNC[C@@H]1CC[C@@H](Nc2ncc3cc(-c4c(F)ccc(NS(=O)(=O)c5cc(Cl)cnc5OC)c4F)ccc3n2)C1 [Compound 13, 5-chloro-N-(2,4-difluoro-3-(2-(((1R,3R)-3-(((2-methoxyethyl)ami-no)methyl)cyclopent-yl)amino)quina-zolin-6-yl)phenyl)-2-methoxypyridine-3-sulfonamide]
